Columns and labels:
Experiment in all cases: cells
[1] = tested on: NCI-H1993; format: functional, cell-based, Homo sapiens; details: Homo sapiens, NCI-H1993;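 also: growth inhibition of the cancer cell line, assessed with a cell viability assay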
Description: SANGER: Inhibition of human NCI-H1993 cell growth in a cell viability assay.

[2] = tested on: NCI-H2342; format: functional, cell-based; details: Homo sapiens;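 also: growth inhibition of the cancer cell line, determined with a cell viability assay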
Description: SANGER: Inhibition of human NCI-H2342 cell growth in a cell viability assay.

[3] = tested on: COR-L88; format: functional, cell-based; details: Homo sapiens;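 also: growth inhibition of COR-L88 cells, read out with a cell viability assay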
Description: SANGER: Inhibition of human COR-L88 cell growth in a cell viability assay.

[4] = tested on: HuCCT-1; format: functional, cell-based, Homo sapiens, HuCCT1; details: Homo sapiens, HuCCT-1;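 also: growth inhibition of HuCCT-1 cells, read out by a cell viability assay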
Description: SANGER: Inhibition of human HuCCT1 cell growth in a cell viability assay.

[5] = tested on: NCI-H23; format: functional, cell-based, Homo sapiens; details: Homo sapiens, NCI-H23;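 also: cell viability assay measuring growth inhibition of NCI-H23 cells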
Description: SANGER: Inhibition of human NCI-H23 cell growth in a cell viability assay.

[6] = tested on: SJSA-1; format: functional, cell-based, Homo sapiens; details: Homo sapiens, SJSA-1;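 also: growth inhibition of human SJSA-1 cells, read out through a cell viability measurement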
Description: SANGER: Inhibition of human SJSA-1 cell growth in a cell viability assay.

[7] = tested on: PSN1; format: functional, cell-based, Homo sapiens; details: Homo sapiens, PSN1;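 also: suppression of growth of human PSN1 cells, read out by a cell viability assay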
Description: SANGER: Inhibition of human PSN1 cell growth in a cell viability assay.

[8] = tested on: SBC-5; format: functional, cell-based, Homo sapiens; details: Homo sapiens, SBC-5;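 also: cell viability assay read-out, IC50 is the concentration that inhibits growth of the cells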
Description: SANGER: Inhibition of human SBC-5 cell growth in a cell viability assay.

[9] = tested on: KYSE-140; format: functional, cell-based, Homo sapiens; details: Homo sapiens, KYSE-140;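 also: cell viability assay measuring growth inhibition in human KYSE-140 cells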
Description: SANGER: Inhibition of human KYSE-140 cell growth in a cell viability assay.

[10] = tested on: ABC-1; format: functional, cell-based, Homo sapiens; details: Homo sapiens, ABC-1;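 also: growth inhibition of human ABC-1 cells, read out by a cell viability assay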
Description: SANGER: Inhibition of human ABC-1 cell growth in a cell viability assay.

[11] = tested on: LCLC-103H cell line; format: functional, cell-based, Homo sapiens; details: Homo sapiens, LCLC-103H
Description: SANGER: Inhibition of human LCLC-103H cell growth in a cell viability assay.

[12] = tested on: CaR-1; format: functional, cell-based, Homo sapiens; details: Homo sapiens, CaR-1;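 also: growth inhibition of human CaR-1 cancer cells, read out with a cell viability assay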
Description: SANGER: Inhibition of human CaR-1 cell growth in a cell viability assay.

[13] = tested on: COLO-668; format: functional, cell-based, Homo sapiens; details: Homo sapiens, COLO-668
Description: SANGER: Inhibition of human COLO-668 cell growth in a cell viability assay.

[14] = tested on: CTV-1; format: functional, cell-based; details: Homo sapiens;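 also: growth inhibition of the cell line, read out with a cell viability assay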
Description: SANGER: Inhibition of human CTV-1 cell growth in a cell viability assay.

[15] = tested on: G-401; format: functional, cell-based, Homo sapiens; details: Homo sapiens, G-401
Description: SANGER: Inhibition of human G-401 cell growth in a cell viability assay.

[16] = tested on: MC116; format: functional, cell-based; details: Homo sapiens;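 also: growth inhibition of MC116 cells, read out with a cell viability assay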
Description: SANGER: Inhibition of human MC116 cell growth in a cell viability assay.

[17] = tested on: WM-115; format: functional, cell-based, Homo sapiens; details: Homo sapiens, WM-115
Description: SANGER: Inhibition of human WM-115 cell growth in a cell viability assay.

[18] = tested on: A498; format: functional, cell-based, Homo sapiens; details: Homo sapiens, A498;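 also: growth inhibition of human A498 cells, read out with a cell viability assay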
Description: SANGER: Inhibition of human A498 cell growth in a cell viability assay.

[19] = tested on: CTB-1; format: functional, cell-based; details: Homo sapiens
Description: SANGER: Inhibition of human CTB-1 cell growth in a cell viability assay.

[20] = tested on: KNS-81-FD; format: functional, cell-based, Homo sapiens; details: Homo sapiens, KNS-81-FD;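 also: growth inhibition of KNS-81-FD cells, read out with a cell viability assay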
Description: SANGER: Inhibition of human KNS-81-FD cell growth in a cell viability assay.

[21] = tested on: A 172; format: functional, cell-based, Homo sapiens; details: Homo sapiens, A 172;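 also: growth inhibition of A172 cells, measured with a cell viability readout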
Description: SANGER: Inhibition of human A172 cell growth in a cell viability assay.

[22] = tested on: SHP77; format: functional, cell-based, Homo sapiens, SHP-77; details: Homo sapiens, SHP77;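 also: growth inhibition of human SHP-77 cells measured by a cell viability assay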
Description: SANGER: Inhibition of human SHP-77 cell growth in a cell viability assay.

[23] = tested on: NB69; format: functional, cell-based, Homo sapiens; details: Homo sapiens, NB69;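 also: growth inhibition of NB69 cells, determined by a cell viability assay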
Description: SANGER: Inhibition of human NB69 cell growth in a cell viability assay.

[24] = tested on: NCI-H650; format: functional, cell-based, Homo sapiens; details: Homo sapiens, NCI-H650;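 also: growth inhibition of NCI-H650 cells, read out by a viability assay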
Description: SANGER: Inhibition of human NCI-H650 cell growth in a cell viability assay.

[25] = tested on: OAW-28; format: functional, cell-based, Homo sapiens; details: Homo sapiens, OAW-28;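 also: growth inhibition of OAW-28 cells, read out with a cell viability assay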
Description: SANGER: Inhibition of human OAW-28 cell growth in a cell viability assay.

[26] = tested on: HCC 2998; format: functional, cell-based, Homo sapiens; details: Homo sapiens, HCC 2998;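 also: growth inhibition of human HCC2998 cells, measured with a cell viability read-out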
Description: SANGER: Inhibition of human HCC2998 cell growth in a cell viability assay.

[27] = tested on: EGI-1; format: functional, cell-based, Homo sapiens; details: Homo sapiens, EGI-1;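 also: cell viability readout used to gauge growth inhibition of EGI-1 cells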
Description: SANGER: Inhibition of human EGI-1 cell growth in a cell viability assay.

[28] = tested on: NB12; format: functional, cell-based, Homo sapiens; details: Homo sapiens, NB12;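 also: growth inhibition of human NB12 cells, read out by a cell viability assay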
Description: SANGER: Inhibition of human NB12 cell growth in a cell viability assay.

[29] = tested on: NCI-H1693; format: functional, cell-based, Homo sapiens; details: Homo sapiens, NCI-H1693;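 also: growth inhibition of the human cell line, read out with a cell viability assay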
Description: SANGER: Inhibition of human NCI-H1693 cell growth in a cell viability assay.

[30] = tested on: MDA-MB-415; format: functional, cell-based; details: Homo sapiens
[31] = tested on: 8505C; format: functional, cell-based, Homo sapiens; details: Homo sapiens, 8505C
Description: SANGER: Inhibition of human 8505C cell growth in a cell viability assay.

[32] = tested on: NCI-H1755; format: functional, cell-based, Homo sapiens; details: Homo sapiens, NCI-H1755;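 also: cell viability readout used to measure growth inhibition of NCI-H1755 cells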
Description: SANGER: Inhibition of human NCI-H1755 cell growth in a cell viability assay.

[33] = tested on: HT-1376; format: functional, cell-based, Homo sapiens; details: Homo sapiens, HT-1376
Description: SANGER: Inhibition of human HT-1376 cell growth in a cell viability assay.

[34] = tested on: KM12; format: functional, cell-based, Homo sapiens; details: Homo sapiens, KM12;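 also: KM12 cell growth inhibition, read out with a cell viability assay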
Description: SANGER: Inhibition of human KM12 cell growth in a cell viability assay.

[35] = tested on: SCC-15; format: functional, cell-based, Homo sapiens; details: Homo sapiens, SCC-15;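 also: growth inhibition of SCC-15 cells, read out with a cell viability assay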
Description: SANGER: Inhibition of human SCC-15 cell growth in a cell viability assay.

[36] = tested on: A673; format: functional, cell-based, Homo sapiens; details: Homo sapiens, A673;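 also: growth inhibition of human A673 cells, read out through a cell viability assay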
Description: SANGER: Inhibition of human A673 cell growth in a cell viability assay.

[37] = tested on: CAL-33; format: functional, cell-based, Homo sapiens; details: Homo sapiens, CAL-33;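 also: growth inhibition of CAL-33 cells, read out with a cell viability assay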
Description: SANGER: Inhibition of human CAL-33 cell growth in a cell viability assay.

[38] = tested on: KGN; format: functional, cell-based, Homo sapiens; details: Homo sapiens, KGN;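 also: growth inhibition of KGN cells, read out with a cell viability assay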
Description: SANGER: Inhibition of human KGN cell growth in a cell viability assay.

[39] = tested on: ChaGo-K-1; format: functional, cell-based; details: Homo sapiens;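 also: growth inhibition of ChaGo-K-1 cells, read out with a cell viability assay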
Description: SANGER: Inhibition of human ChaGo-K-1 cell growth in a cell viability assay.

[40] = tested on: HCC1806; format: functional, cell-based, Homo sapiens; details: Homo sapiens, HCC1806;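 also: growth inhibition of the cancer cell line, determined with a cell viability assay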
Description: SANGER: Inhibition of human HCC1806 cell growth in a cell viability assay.

[41] = tested on: BV-173; format: functional, cell-based; details: Homo sapiens
Description: SANGER: Inhibition of human BV-173 cell growth in a cell viability assay.

[42] = tested on: HT1197; format: functional, cell-based, Homo sapiens, HT-1197; details: Homo sapiens, HT1197
Description: SANGER: Inhibition of human HT-1197 cell growth in a cell viability assay.

[43] = tested on: NCI-H1563; format: functional, cell-based, Homo sapiens; details: Homo sapiens, NCI-H1563;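 also: growth inhibition of human NCI-H1563 cells, read out with a cell viability assay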
Description: SANGER: Inhibition of human NCI-H1563 cell growth in a cell viability assay.

[44] = tested on: KE-37; format: functional, cell-based; details: Homo sapiens;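 also: growth inhibition of KE-37 cells, read out with a cell viability assay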
Description: SANGER: Inhibition of human KE-37 cell growth in a cell viability assay.

[45] = tested on: CAL-72; format: functional, cell-based, Homo sapiens; details: Homo sapiens, CAL-72;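 also: cell viability assay measuring inhibition of proliferation in the CAL-72 cell line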
Description: SANGER: Inhibition of human CAL-72 cell growth in a cell viability assay.

[46] = tested on: A101D; format: functional, cell-based, Homo sapiens; details: Homo sapiens, A101D;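 also: growth inhibition of the cell line, measured with a viability assay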
Description: SANGER: Inhibition of human A101D cell growth in a cell viability assay.

[47] = tested on: OAW-42; format: functional, cell-based, Homo sapiens; details: Homo sapiens, OAW-42;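 also: growth inhibition of OAW-42 cells, read out with a cell viability assay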
Description: SANGER: Inhibition of human OAW-42 cell growth in a cell viability assay.

[48] = tested on: LU-99A; format: functional, cell-based, Homo sapiens; details: Homo sapiens, LU-99A;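 also: growth inhibition of LU-99A cells, read out with a cell viability assay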
Description: SANGER: Inhibition of human LU-99A cell growth in a cell viability assay.

[49] = tested on: C8166; format: functional, cell-based; details: Homo sapiens;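 also: growth inhibition of human C8166 cells measured by a cell viability assay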
Description: SANGER: Inhibition of human C8166 cell growth in a cell viability assay.

[50] = tested on: Huh-7; format: functional, cell-based, Homo sapiens; details: Homo sapiens, Huh-7;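 also: HuH-7 cell growth inhibition, read out with a cell viability assay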
Description: SANGER: Inhibition of human HuH-7 cell growth in a cell viability assay.

With COC(=O)CNC(=O)C(=O)OC the IC50 [1] was 331 µM, the IC50 [2] was 104 µM and the IC50 [3] was 273 µM. For the same molecule, the IC50 [4] was 211 µM, the IC50 [5] was 2.95 mM and the IC50 [6] was 278 µM. For the same molecule, the IC50 [7] was > 4 mM, the IC50 [8] was 1390 µM and the IC50 [9] was 1610 µM. The IC50 [10] was 447 µM, the IC50 [11] was 880 µM and the IC50 [12] was 220 µM. The IC50 [13] was 93.8 µM, the IC50 [14] was 468 µM and the IC50 [15] was 1460 µM. It also gave an IC50 [16] of 174 µM, an IC50 [17] of 220 µM and an IC50 [18] of 663 µM. It also gave an IC50 [19] of 86 µM, an IC50 [20] of 1.85 mM and an IC50 [21] of 566 µM. The IC50 [22] was 821 µM, the IC50 [23] was 213 µM and the IC50 [24] was 269 µM. The IC50 [25] was 2.11 mM, the IC50 [26] was 3.16 mM and the IC50 [27] was 329 µM. For the same molecule, the IC50 [28] was 85.4 µM, the IC50 [29] was 3.79 mM and the IC50 [30] was 2.93 mM. The IC50 [31] was 678 µM, the IC50 [32] was 2.74 mM and the IC50 [33] was 389 µM. For the same molecule, the IC50 [34] was 2.24 mM, the IC50 [35] was 1030 µM and the IC50 [36] was 526 µM. The IC50 [37] was 242 µM, the IC50 [38] was 62.8 µM and the IC50 [39] was 1560 µM. The IC50 [40] was 1840 µM, the IC50 [41] was 234 µM and the IC50 [42] was 315 µM. For the same molecule, the IC50 [43] was 124 µM, the IC50 [44] was 43.3 µM and the IC50 [45] was 488 µM. The IC50 [46] was 163 µM, the IC50 [47] was 425 µM and the IC50 [48] was 197 µM. It also gave an IC50 [49] of 1040 µM and an IC50 [50] of 61.7 µM.

In the case of COc1cc([C@@H]2c3cc4c(cc3[C@@H](O[C@@H]3O[C@@H]5CO[C@@H](C)O[C@H]5[C@H](O)[C@H]3O)[C@H]3COC(=O)[C@H]23)OCO4)cc(OC)c1O [ETOPOSIDE], the IC50 [1] is reported as > 16 µM, the IC50 [2] is reported as 0.555 µM and the IC50 [3] is reported as > 16 µM. For the same molecule, the IC50 [4] was 1.91 µM, the IC50 [5] was 0.0132 mM and the IC50 [6] was 2.98 µM. For the same molecule, the IC50 [7] was > 0.016 mM, the IC50 [8] was 0.303 µM and the IC50 [9] was 4.92 µM. The IC50 [10] was 0.405 µM, the IC50 [11] was 0.651 µM and the IC50 [12] was 8.6 µM. For the same molecule, the IC50 [13] was 1.66 µM, the IC50 [14] was 0.41 µM and the IC50 [15] was 1.44 µM. For the same molecule, the IC50 [16] was > 16 µM, the IC50 [17] was > 16 µM and the IC50 [18] was > 16 µM. For the same molecule, the IC50 [19] was 1.69 µM, the IC50 [20] was > 0.016 mM and the IC50 [21] was 8.65 µM. The IC50 [22] was > 16 µM, the IC50 [23] was 1.09 µM and the IC50 [24] was 1.71 µM. It also gave an IC50 [25] of 0.00215 mM, an IC50 [26] of 0.00126 mM and an IC50 [27] of 3.27 µM. The IC50 [28] was 1.08 µM, the IC50 [29] was > 0.016 mM and the IC50 [30] was > 0.016 mM. The IC50 [31] was 0.693 µM, the IC50 [32] was > 0.016 mM and the IC50 [33] was 5.82 µM. For the same molecule, the IC50 [34] was 0.00188 mM, the IC50 [35] was 13.1 µM and the IC50 [36] was 2.16 µM. It also gave an IC50 [37] of 0.686 µM, an IC50 [38] of 0.352 µM and an IC50 [39] of 3.79 µM. For the same molecule, the IC50 [40] was 4.73 µM, the IC50 [41] was 5.05 µM and the IC50 [42] was > 16 µM. For the same molecule, the IC50 [43] was 7.07 µM, the IC50 [44] was 0.0407 µM and the IC50 [45] was > 16 µM. The IC50 [46] was 1.2 µM, the IC50 [47] was 6.06 µM and the IC50 [48] was 2.43 µM. It also gave an IC50 [49] of 1.68 µM and an IC50 [50] of 2.56 µM.
